The values below come from article PMC4176827 (Molecular and biochemical parasitology, 2014).

Experiment [1] addresses T1, CpDHS (Cryptosporidium parvum, UniProt A3FQA5).
T1 sequence (A3FQA5 1-362): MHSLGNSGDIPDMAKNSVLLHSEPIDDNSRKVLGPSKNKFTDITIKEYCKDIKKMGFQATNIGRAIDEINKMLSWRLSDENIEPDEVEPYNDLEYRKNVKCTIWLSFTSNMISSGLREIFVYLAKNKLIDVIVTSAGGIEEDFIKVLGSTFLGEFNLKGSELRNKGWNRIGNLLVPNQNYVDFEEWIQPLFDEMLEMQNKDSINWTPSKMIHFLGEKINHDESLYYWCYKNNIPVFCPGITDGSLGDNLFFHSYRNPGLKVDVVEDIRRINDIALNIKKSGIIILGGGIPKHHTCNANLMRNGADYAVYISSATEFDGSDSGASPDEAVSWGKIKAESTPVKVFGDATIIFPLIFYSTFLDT
Kind of experiment: radiometric deoxyhypusine synthase assay. The conditions noted are these: read-out: % inhibition at 1 μM. Type of experiment: biochemical.

Experiment [2] has as its target T1, CpDHS. Kind of experiment: fluorescence of enzyme-bound NADH. In kind it is biochemical. Particulars: 100 µM spermidine, no eIF5A, 0.2 M glycine buffer pH 9.2.

SMILES strings stand for the structures.

Turning to `N=C(N)NCCCCCCCN` [GC7, N^1-guanyl-1,7-diaminoheptane], the inhibition at 1 µM at CpDHS [1] is more than 90%. In the case of `NC(=O)c1ccc[n+]([C@@H]2O[C@H](COP(=O)(O)OP(=O)(O)OC[C@H]3O[C@@H](n4cnc5c(N)ncnc54)[C@H](O)[C@@H]3O)[C@@H](O)[C@H]2O)c1` [NAD^+], on CpDHS [2], the “fluorescence of enzyme-bound NADH (excitation 340 nm, emission 441 nm)” value is “both spermidine and NAD^+ are required for NADH fluorescence”.

The term inhibition denotes the relative decrease from the control value, in per cent.
